This is an account of results in US10428030B2, “Heterocycle derivatives and their use for the treatment of CNS disorders” (Trillium Therapeutics Inc., priority 2015, dated 2019).

A value given as a limit tells only on which side of the number the result lay.

In general, ED50 refers to the dose that gives a 50% effect, or the effect in half of the subjects.

In data set [1] the test system is Frings audiogenic seizure-susceptible mice. The data set can be described thus: Frings audiogenic seizure (AGS)-susceptible mouse model. To be noted: Mus musculus, ip, sound-induced seizures. In kind it is in vivo. The text has this: Frings audiogenic seizure (AGS)-susceptible mice model examines the ability of an investigational drug to alter the onset and/or severity of seizures in a genetic mouse model of seizure susceptibility. Mice are genetically susceptible to sound-induced reflex seizures. Their seizure phenotype is characterized by wild running, loss of righting reflex, tonic flexion, and tonic extension in response to high-intensity sound stimulation. […] For example, the prototypical anticonvulsants phenytoin and ethosuximide display widely divergent clinical spectrums in humans, but are both active against sound-induced seizures in mice. Yet, the preclinical utility of this animal model rests in the useful information that can be obtained within a genetically susceptible model of seizures. Further, efficacy in this model provides proof of concept of brain bioavailability following systemic administration. The Frings AGS-susceptible mouse has a well-validated epilepsy phenotype that makes it particularly useful as a screening model. Beginning at about 21 days of age, Frings AGS-susceptible mice display prominent seizure activity in response to a high-intensity sound stimulus. They then remain susceptible to sound throughout their life. This is in stark contrast to the DBA2J AGS-susceptible mouse, which is the other common model of sound-induced seizures, as DBA2J mice are only susceptible to sound-induced seizures during a narrow developmental window (post-natal days 18-30). Thus, the Frings AGS-susceptible mouse seizures respond to a wide range of CNS-active drugs and display sound-induced seizures throughout their lifetime. In this regard, Frings AGS-susceptible mice are a highly useful screening model for the identification and characterization of compounds potentially effective against inherited epilepsy.
Male and female Frings audiogenic seizure-susceptible mice (18-25 g) are maintained in an in-house colony at the University of Utah. For each screening test, groups of 8 mice each are treated i.p. with varying doses of the investigational compound. At the time of peak effect as determined in the MES test (Test 4 in CF1 mice), individual mice are placed in a round plexiglass jar (diameter, 15 cm, height, 18 cm) and exposed to a sound stimulus of 110 decibels (11 KHz) delivered for 20 sec. Mice are observed for 25 sec for the presence or absence of hind limb tonic extension. Mice not displaying hind limb tonic extension are considered protected. The severity of a seizure may also be quantitated by assigning a numerical score to the observed response, e.g. no response—0; wild running for <10 sec—1; wild running for >10 sec—2; clonic seizure—3; forelimb extension/hind limb flexion—4; tonic seizure—5.

For data set [2] the test system is unchanged. To be noted: general statement on prototypical anticonvulsants; cited from earlier work.
Data set [3] deals with MTLE mice. The data set is described as follows: Model of mesial temporal lobe epilepsy (mTLE), hippocampal paroxysmal discharges. It counts as in vivo, mouse. As to conditions: after 600 mg/kg, mice 4 weeks after intra-hippocampal KA. The text has this:
The MTLE mouse model recapitulates many of the characteristics observed in human patients with temporal lobe epilepsy (TLE). The MTLE mouse is characterized by an initial neurotoxic event, a unilateral intrahippocampal injection of kainic acid (KA) into the dorsal hippocampus, which induces non-convulsive SE lasting several hours. This initial event is followed by a latent phase. Two to three weeks after KA injection, spontaneous recurrent hippocampal paroxysmal discharges (HPD) are only recorded in the epileptic hippocampus and remain stable and stereotyped for the whole life of the animal. These HPDs occur spontaneously about 30-60 times per hour when the animals are in a state of quiet wakefulness, generally last 15-20 sec and are associated with behavioral arrest and/or mild motor automatisms. Adult, male […] mice are stereotaxically injected with kainate (1 nmol in 100 nL) and implanted with 1 bipolar electrode in the dorsal hippocampus, and then allowed to recover for four weeks prior to evaluation in the screening protocol. Using a group size of 4 MTLE mice per dose of investigational compound, the compounds are typically first tested using the 6 Hz 44 mA ED50 value. […] For all acute studies, drug conditions are counter-balanced in MTLE mice over a two week period using a Latin square dosing protocol. Animals are used as their own controls. Digital EEG recordings are performed on freely moving animals for 20 minutes pre-injection (reference period) and 90 minutes post-injection. Data are analyzed for the period of 10 minutes before and 10 minutes after peak time of effect of the investigational compound, as determined from the 6 Hz 44 mA seizure test. The effects of the injected compound are compared to the reference period. Any accompanying effect on animal behavior is noted. Data are presented as the raw number of HPDs during the analyzed 20 min period (10 minutes before and 10 minutes after peak time of effect of compound) for each MTLE mouse, group mean number of HPDs, and effect on suppression as represented by percent of baseline HPD values.

Data set [4] has as its system mouse. As to conditions: literature report; cited from earlier work.
Data set [5] deals with mouse. To be noted: literature report; cited from earlier work. This is another data set of the same source.
In data set [6] the test system is Male Sprague-Dawley rats. The data set is described as follows: Maximal Electroshock Seizure (MES) rat model. It counts as in vivo. To be noted: po, 4 hours. As to the method:
(§1) Male, Sprague-Dawley rats and CD-1 mice were used for all studies. All animals were allowed ad-lib access to food and water except during experiment. Animals were housed within an animal vivarium maintained under a 12 h light:dark cycle (lights on: 07:00 h), and all experiments were conducted in the animals light phase. For all experiments, animals were habituated to the vivarium for a minimum of 72 h before experimentation. The experimental procedures used in the present investigation were conducted under the Association for Assessment and Accreditation of Laboratory Animal Care (AAALAC) and the Canadian Council on Animal Care (CCAC) guidelines.
(§2) All compounds were sonicated in 5% Tween 80® in saline or methylcellulose 0.5% (wgt/vol), using MC and sterile water and injected in a dose volume of 5 ml/kg or 10 ml/kg (rat), and 10 ml/kg (mouse). Drugs were administered by either the oral, intraperitoneal or intravenous route.
Male Sprague-Dawley rats of body weight 80-100 g were used for these studies. Each experiment was conducted over 3 consecutive days. On day 1 and 2, each rat received a single electrical stimulus (150 mA, 0.2 s duration, 60 Hz) via corneal electrodes moistened with saline (Shock stimulator type 221: Harvard apparatus). […] Typically this reflected approximately 70-90% of the initial group.
(§3) On the test day following a defined drug pretreatment period, rats received a maximal electroshock (150 mA, 0.2 s duration, 60 Hz) via corneal electrodes. Protection was defined as absence of a full tonic seizure within 10 s of stimulus delivery. Twenty minutes before the MES procedure, the animals were tested on a fixed speed rotorod (best score from 3 trials at 8 r.p.m, trial duration=60 s) to give an early assessment of drug effect on gross motor function.

In data set [7] the test system is CD-1 mice. The data set can be described thus: s.c Pentylenetetrazole (PTZ) mouse model. It counts as in vivo. As to conditions: ip, PTZ 85 mg/kg s.c. How it is done: as §1, §2
Sixty minutes following drug or vehicle pretreatment, all mice received a single subcutaneous injection of pentylenetetrazol (PTZ; 85 mg/kg). The animals were then transferred to single observation cages (dimension: 11.5″×7.5″×5″) and observed continuously for 30 min. […] In the event of a seizure, the onset latency from PTZ injection was recorded.

Data set [8] in a line: Fixed speed rotorod, gross motor function (rat). To be noted: male, Sprague-Dawley, in vivo, po. As to the method:
as §3
A general note: In the rotarod test animals must keep their balance on a rotating rod.

`CCC1(C)CC(=O)NC1=O` (centres unmarked) [Ethosuximide] yielded a 50% effective dose (ED50) in data set [1] of 328 mg/kg. Also, the “activity against sound-induced seizures in mice” value in data set [2] is on record as “active”.
In data set [1], `Nc1nnc(-c2cccc(Cl)c2Cl)c(N)n1` [Lamotrigine] showed an ED50 of 2.39 mg/kg.
`CC[C@@H](C(N)=O)N1CCCC1=O` [Levetiracetam, reference compound]: the “Effect (% baseline)” value in data set [3] (HPD) is reported as 68.7 % baseline. In data set [3], the “Mean HPD Counts” value was determined as 14.3.
Regarding `O=C1NC(=O)C(c2ccccc2)(c2ccccc2)N1` [Phenytoin], the ED50 in data set [1] was found to be 3.8 mg/kg. Moreover, the “activity against sound-induced seizures in mice” value in data set [2] is listed as “active”.
Regarding `O=C1CCc2cc(OCc3ccccc3)ccc2N1`, the “activity in mouse electroshock seizure (MES) model” value in data set [4] is reported as “active”. In data set [5], the “activity in pentylenetetrazole (PTZ) model” value was “active”.
`NCC1(CC(=O)O)CCCCC1` [Gabapentin] had an ED50 in data set [1] of 91.1 mg/kg.
As for `CCCC(CCC)C(=O)O` [Valproic Acid], the 50% effect level in data set [1] (ED50) was put at a dose of 155 mg/kg.
On to `O=C1COc2cc(OCc3ccccc3)ccc2N1` [Compound 1, 7-Benzyloxy-4H benzo[1,4]oxazin-3-one, reference compound], for which the ED50 in data set [6] and in data set [7] was greater than 300 mg/kg each time.
`O=C1Nc2ccc(OCc3ccccc3)cc2OC1(F)F` [I(D), 7-Benzyloxy-2,2-difluoro-4H-benzo[1,4]oxazin-3-one] yielded an ED50 in data set [6] of 30.5 ± 0.8 mg/kg. In data set [8], this compound registered an ED50 at 4 hours greater than 120 mg/kg.
In data set [1], `NC(=O)OCC(COC(N)=O)c1ccccc1` [Felbamate] yielded an ED50 of 10 mg/kg.
The same measure, in the same setting: in the case of `NC(=O)N1c2ccccc2C=Cc2ccccc21` [Carbamazepine] it was 11.2 mg/kg.
